Where two headings read alike, the source gives them in different places.
Columns and labels:
[1] = test system: Male Sprague Dawley (SD) rats; experiment: In vivo assay of mechanical nociception (rat pinch model, perisciatic injection); settings: for Average Time of Analgesia: test compound 0.5%, perisciatic
[2] = molecular target: T1, human Nav1.5 sodium channel (Homo sapiens, UniProt Q14524); experiment: Inhibition of sodium channel response in hNav1.5-HEK293 cells (FLIPR, veratridine); type: cell-based; settings: for IC50: average, read-out: HEK Nav 1.5 IC50 (μM) (AVG); for inhibition at 10 min, 0.5 mM / inhibition at 10 min, 1.5 mM: human, HEK-293 cells expressing human Nav1.5 (hNav1.5-HEK-293), pH 7.4; for inhibition at 10 min, 0.5 mM: read-out: HEK Nav 1.5 % inh. @ 0.5 mM; for inhibition at 10 min, 1.5 mM: read-out: HEK Nav 1.5 % inh. @ 1.5 mM
T1 construct: host or cells: HEK-293
T1 sequence (Q14524 whole entry): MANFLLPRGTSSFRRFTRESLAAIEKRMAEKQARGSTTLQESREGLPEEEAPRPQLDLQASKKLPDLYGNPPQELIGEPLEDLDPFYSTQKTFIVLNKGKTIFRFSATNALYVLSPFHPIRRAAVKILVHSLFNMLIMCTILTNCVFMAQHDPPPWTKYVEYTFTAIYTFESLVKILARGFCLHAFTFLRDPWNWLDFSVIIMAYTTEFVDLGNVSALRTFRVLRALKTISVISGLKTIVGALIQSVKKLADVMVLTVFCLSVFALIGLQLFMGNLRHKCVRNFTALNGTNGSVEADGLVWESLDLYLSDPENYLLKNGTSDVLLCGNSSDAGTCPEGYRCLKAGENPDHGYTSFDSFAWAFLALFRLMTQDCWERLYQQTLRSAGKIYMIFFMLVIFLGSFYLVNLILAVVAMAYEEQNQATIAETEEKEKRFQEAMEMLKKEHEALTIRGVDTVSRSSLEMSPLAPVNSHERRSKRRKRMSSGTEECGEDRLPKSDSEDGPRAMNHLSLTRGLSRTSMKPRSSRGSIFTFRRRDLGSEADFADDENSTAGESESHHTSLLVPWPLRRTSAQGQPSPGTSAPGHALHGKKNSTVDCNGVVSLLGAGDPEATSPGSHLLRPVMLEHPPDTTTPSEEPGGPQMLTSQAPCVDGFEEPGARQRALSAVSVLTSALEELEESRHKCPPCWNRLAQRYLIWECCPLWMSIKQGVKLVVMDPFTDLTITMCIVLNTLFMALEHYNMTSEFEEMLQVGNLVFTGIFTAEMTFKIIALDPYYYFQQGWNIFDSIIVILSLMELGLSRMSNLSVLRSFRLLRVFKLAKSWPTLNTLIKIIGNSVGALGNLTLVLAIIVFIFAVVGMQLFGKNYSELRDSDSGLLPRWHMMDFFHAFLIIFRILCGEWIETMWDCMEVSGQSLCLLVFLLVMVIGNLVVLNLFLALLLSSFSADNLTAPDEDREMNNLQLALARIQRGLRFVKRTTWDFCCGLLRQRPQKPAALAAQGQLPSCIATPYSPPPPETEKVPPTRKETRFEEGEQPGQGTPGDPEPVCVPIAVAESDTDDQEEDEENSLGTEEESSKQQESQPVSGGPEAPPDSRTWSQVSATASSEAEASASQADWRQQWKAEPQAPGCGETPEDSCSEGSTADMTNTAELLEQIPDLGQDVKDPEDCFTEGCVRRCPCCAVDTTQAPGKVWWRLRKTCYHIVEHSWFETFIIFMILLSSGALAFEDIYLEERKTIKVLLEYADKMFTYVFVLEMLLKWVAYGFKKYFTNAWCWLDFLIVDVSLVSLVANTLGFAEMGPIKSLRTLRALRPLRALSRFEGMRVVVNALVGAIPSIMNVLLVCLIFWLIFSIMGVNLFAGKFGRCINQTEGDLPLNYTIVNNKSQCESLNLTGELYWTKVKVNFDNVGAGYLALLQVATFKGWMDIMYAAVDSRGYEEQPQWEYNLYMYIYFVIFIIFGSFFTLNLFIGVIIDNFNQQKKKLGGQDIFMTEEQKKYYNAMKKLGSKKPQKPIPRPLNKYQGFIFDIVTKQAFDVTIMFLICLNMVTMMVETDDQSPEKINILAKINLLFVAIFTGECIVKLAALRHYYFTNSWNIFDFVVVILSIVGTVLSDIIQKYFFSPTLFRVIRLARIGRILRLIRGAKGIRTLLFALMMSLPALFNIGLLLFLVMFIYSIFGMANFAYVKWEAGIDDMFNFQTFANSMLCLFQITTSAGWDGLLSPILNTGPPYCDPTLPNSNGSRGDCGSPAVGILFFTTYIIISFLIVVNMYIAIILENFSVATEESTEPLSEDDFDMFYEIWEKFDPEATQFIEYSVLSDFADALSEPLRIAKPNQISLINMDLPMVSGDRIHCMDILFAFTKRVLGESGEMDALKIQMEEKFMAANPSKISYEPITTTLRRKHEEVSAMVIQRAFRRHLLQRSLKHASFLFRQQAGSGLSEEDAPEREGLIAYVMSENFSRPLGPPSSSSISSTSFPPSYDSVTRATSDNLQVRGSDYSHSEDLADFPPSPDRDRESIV
Procedure: C. Method for Assessing the Extent of Inhibition of Sodium Channel Response with Compounds in hNav1.5-HEK293 Cells.
The following assay was used to assess the tendency of the test compounds to block the dominant cardiac sodium channel isoform. Nav1.5 sodium channels are known to be permeable to quaternary sodium channel blockers such as QX-314 and, thus, the assay was performed in the absence of a chemical TRPV1 agonist.
The hNav1.5-HEK-293 cells (CreaCell, France, a human embryonic kidney cell line expressing the human Nav1.5 sodium channel) were cultured in Growth medium (containing 1×DMEM (Gibco)+10% FBS (PAA Gold)+2% Glutamine 100 mM (Gibco)+1% penicillin 10,000 U/mL streptomycin 10,000 μg/mL (Invitrogen)+1.2 mg/mL Geneticin G418 (Invitrogen)) in […] cell bind flasks (Corning). The following steps were followed exactly as mentioned. The spent medium was discarded and the cells rinsed once with PBS-1×. Accutase® (1-2 mL; PAA) solution was added. The plate was placed on a 37° C. warming incubator 3-5 minutes. As soon as cells are detached, 37° C. complete medium (9 mL) was added. The cell suspension was drawn into a sterile pipette and cells homogenized gently to dissociate cell aggregates. The cells were counted using a hemocytometer with Blue Trypan and then centrifuged 5 minutes at 400 g. The cells can be amplified or maintained by seeding […] in a T75 flask (final volume: 15 mL). 8000 cells in 50 μL Growth medium was added to each well of 384-well, clear bottomed, sterile poly-D-lysine coated plates with lid (Greiner-bio one) inside the laminar air-flow. The plates were incubated at 37° C. and 5% CO2 in a CO2 incubator (Thermo) for 48 hours.
On the day of the assay, cells were washed with Assay buffer, which was prepared using the components and amounts in Table 4. The pH was adjusted to 7.4 with NaOH, volume made up to 500 mL with Milli-Q® water.
Assay Buffer was added to the cells and incubated at rt (25° C.) for 10 minutes. The compounds were diluted in assay buffer. The compounds were added and incubated at rt (25° C.) for 10 minutes. Red FMP Dye (MDC) was added to the cells and the plate was incubated at rt (25° C.) for 30 minutes. Veratridine stock (20 mM; Sigma) was prepared in DMSO; veratridine (final concentration of 30 μM) in assay buffer was added to each well of the cell seeded plates in the FLIPR® system and read taken for 10 minutes. Table 5 provides data illustrating the sodium channel activity of the test compounds in response to the presence or absence of heat stimulation in cells expressing hTRPV1. The compounds were tested for differential activity at 25° C. and 47° C. and at two test concentrations. Compounds showing the most promising profiles were further evaluated for IC50 in the 47° C. assay, examples are shown in Table 5.

[3] = test system: sodium channel in hTRPV1-N1E115 cells; experiment: FLIPR membrane potential assay of sodium channel response in hTRPV1-N1E115 cells, with (47° C.) or without (25° C.) heat activation of hTRPV1; type: cell-based; settings: for hTRPV1-N1E Nav 0.1 mM (% inhibition) 25° C. / hTRPV1-N1E Nav 1 mM (% inhibition) 25° C.: 25° C. (no heat activation of hTRPV1); for IC50 / hTRPV1-N1E Nav (% inhibition) 47° C., tested at 0.5 mM: 47° C.; for IC50: read-out: hTRPV1-N1E IC50 (μM) 47° C.; for hTRPV1-N1E Nav (% inhibition) 25° C., tested at 0.5 mM / hTRPV1-N1E Nav (% inhibition) 47° C., tested at 0.5 mM: 0.5 mM (stated in cell, column head 0.1 mM)
From the text: In one embodiment, a modified FLIPR® (Fluorometric Imaging Plate Reader) based assay system was developed which is capable of discriminating between non-specific versus hTRPV1-mediated entry of test compounds. Advantageously, the assay system utilizes heat activated opening of hTRPV1 channels followed by an assessment of internal sodium channel block. The assay allows a permanently charged compound to selectively enter through opened hTRPV1 channels and that compound's potency in inhibiting sodium channels from the cytoplasm side of the same cell can be assessed and quantified.
The assay is readily performed in multi-well assay plates into which cells in growth media are added and incubated under conditions which permit the formation of a confluent monolayer over a period of hours prior to the start of the assay. Conventional culture media and conditions may be utilized. Duplicate cell assay plates are prepared for each experiment.
The spent media from the cell seeded plates is removed on the day of the assay and replaced with Membrane potential Dye-Blue (Molecular Devices). The dye was prepared in assay buffer following manufacturer's instructions. The dye-loaded plate is incubated at room temperature (about 25° C.) for about 30 minutes in order to pre-load the cells with dye. Optionally, the cells may be loaded with the dye simultaneously with adding the test compounds.
The test compounds are diluted in the Assay Buffer and added to each well of a specific 384-well ‘compound plate’, which serves as a source plate for compound addition using the FLIPR® platform. The concentration of compounds in the compound-plate was adjusted to achieve the desired final concentration when added to the cells in the ‘cell-plate’. After completion of the dye incubation period, the dye loaded cell-plates and the compound source plates are inserted into the FLIPR® Tetra™ device with a 384 FLIPR® tip box (Molecular Devices, Inc.) according to manufacturer's instructions. The compounds are robotically added to the dye loaded cell-plates using software integral to the FLIPR® Tetra™ instrument.
Immediately following compound addition, hTRPV1 is activated, in one of the duplicate cell plates, by heating. Specifically, entire multi-well plate containing the compound-cells mixture is incubated at 47° C. for 10 minutes, after which they are returned to room temperature (about 25° C.) for a further 30 minutes. Heat activation of hTRPV1 was omitted from the replicate cell plate which was simply maintained at room temperature for the entire 40 minutes.
A membrane potential response is elicited in the dye- and compound-loaded cells by the addition of veratridine which is a known sodium channel ‘agonist’. As illustrated in an example herein, an agonist plate containing veratridine (Sigma) is prepared in advance and is inserted into suitable devices such as, e.g., the FLIPR® TETRA® device for a “2nd addition” as instructed by the manufacturer. The concentration of veratridine in the ‘agonist plate’ was adjusted to achieve a final concentration of 100 μM when added to the cells in the cell-plate. Final concentrations of veratridine greater or lesser than 100 μM may also be used but the signal measured by the FLIPR®^Tetra™ device or another suitable device may vary accordingly.
The exposure of the cells in the cell-plate to veratridine induces sodium channels in the cells to open and the resulting ion flux produces a membrane potential depolarization that is detected as a fluorescence signal by the FLIPR® ^Tetra™ Device. The activity of test compounds is determined by their ability to attenuate the veratridine-induced fluorescence signal, the most promising compounds are those that show an enhanced activity in the heat-activated cell plate over the non-heat-activated cell plate. […]

[4] = lidocaine 2%, total injection 100 μL
[5] = 47° C. (heat activation of hTRPV1)
[6] = lidocaine 0%, total injection 100 μL
[7] = lidocaine 0%, total injection 200 μL
[8] = lidocaine 2%, total injection 200 μL

| IC50 ([3]; class symbols) [µM] | IC50 ([3]; numeric values) [µM] | Compound | Average Time of Analgesia [1, 4] [h] | IC50 [2] [µM] | inhibition at 10 min, 0.5 mM [2] [%] | inhibition at 10 min, 1.5 mM [2] [%] | hTRPV1-N1E Nav 0.1 mM (% inhibition) 25° C. [3] [%] | hTRPV1-N1E Nav 0.1 mM (% inhibition) 47° C. [3, 5] | hTRPV1-N1E Nav 1 mM (% inhibition) 25° C. ([3]; 1 mM) | hTRPV1-N1E Nav (% inhibition) 25° C., tested at 0.5 mM [3] [%] | hTRPV1-N1E Nav (% inhibition) 47° C., tested at 0.5 mM [3] | Average Time of Analgesia [1, 6] [h] | Average Time of Analgesia [1, 7] [h] | Average Time of Analgesia [1, 8] [h] | analgesic effects in the absence of lidocaine ([1]; absence of lidocaine) | hTRPV1-N1E Nav 1 mM (% inhibition) 47° C. ([3]; 1 mM, 47° C. (heat activation of hTRPV1)) |
| --- | --- | --- | --- | --- | --- | --- | --- | --- | --- | --- | --- | --- | --- | --- | --- | --- |
| 10 to 100 | – | CC[N+]1(CC)CCCC[C@@H]1CCN(c1ccccc1)C1Cc2ccccc2C1.[I-] [Example 11, (R)-1,1-Diethyl-2-[2-((indan-2-yl)(phenyl)amino)ethyl]piperidinium iodide] | 7 | 44 | 97.9 | 97.8 | 0 | 72% | 71 (N = 2) % | – | – | – | – | – | – | – |
| 10 to 100 | – | C[N+]1(C)CCCC[C@H]1CCN(c1ccccc1)C1Cc2ccccc2C1.[I-] [Example 9, (S)-1,1-Dimethyl-2-[2-((indan-2-yl)(phenyl)amino)ethyl]piperidinium iodide] | 5 | 647 | 72.4 | 97.2 | – | – | – | 16 | 77 (N = 2, 0.5 mM) % | – | – | – | – | – |
| – | 9 | CC[N+]1(CC)CCCC[C@H]1CCN(c1ccccc1)C1Cc2ccccc2C1.[I-] [Example 2, (S)-1,1-diethyl-2-[2-((indan-2-yl)(phenyl)amino)ethyl]piperidinium iodide] | 10 | 247 | 89.2 | 98.1 | – | – | 50 (N = 2) % | 44 | 89 (N = 2, 0.5 mM) % | 0 | 4 | >14 | – | – |
| – | 37 | C[N+]1(C)CCCCC1CN(c1ccccc1)C1Cc2ccccc2C1.[I-] (stereo not drawn) [Example 3, 1,1-dimethyl-2-[((indan-2-yl)(phenyl)amino)methyl]piperidinium iodide] | 12 | 190 | 77.6 | 99.1 | 16 | 67 (N = 2) % | 23 (N = 2) % | – | – | 4 | 9 | >15 | analgesic effects of significant duration | 60 (N = 2) % |
